{
  "source": "PubChem BioAssay AID1996",
  "data": [
    {"details": "buffer; pH 7.4; 200.0 µM", "units": {"solubility kinetic": "µg/mL"}, "values": [
      {"compound": "CC(C)(C)NC(=O)C(=O)NNC(=O)c1ccco1", "solubility kinetic": "> 38"},
      {"compound": "CC1CCCC(NC(=O)CCCn2c(=S)[nH]c3ccccc3c2=O)C1C", "note": "(stereo not given)", "solubility kinetic": "< 0.3"},
      {"compound": "CCc1cc2c(=O)n(-c3ccccc3)c(SCC(N)=O)nc2s1", "solubility kinetic": 2.8},
      {"compound": "Cc1ccc(-c2ccc(/C=N/O)o2)cc1[N+](=O)[O-]", "solubility kinetic": 3.4},
      {"compound": "CC(C)c1ccc(N(C)C(=O)Cc2c(C(=O)O)n(C)c3ccccc23)cc1", "solubility kinetic": "> 54.7"},
      {"compound": "O=C(CN1CCCCCC1)Nc1ccc([N+](=O)[O-])cc1Cl", "solubility kinetic": 1.1},
      {"compound": "Cn1c(SCC(=O)Nc2ccccc2[N+](=O)[O-])nnc1C(F)(F)F", "solubility kinetic": "> 54.2"},
      {"compound": "O=C(COC(=O)c1ccc(F)c([N+](=O)[O-])c1)NC(=O)NCc1ccccc1", "solubility kinetic": 21.3},
      {"compound": "Cc1[nH]c2nc3ccccc3n2c(=O)c1CCC(C)C", "solubility kinetic": "< 0.2"},
      {"compound": "O=C(CNC(=O)c1ccccc1)NCc1nc2ccccc2[nH]1", "solubility kinetic": 39.4},
      {"compound": "Cc1cc(C)n2nc(SC(C)C(=O)N(C)C3CCCCC3)nc2n1", "note": "(stereo not given)", "solubility kinetic": "> 52.1"},
      {"compound": "CCN1CCN(C(=O)N(c2ccccc2)c2ccccc2)CC1", "solubility kinetic": "> 46.4"},
      {"compound": "Cc1ccc(NC(=O)COC(=O)CCc2ccccc2)cc1S(=O)(=O)N1CCOCC1", "solubility kinetic": 24.6},
      {"compound": "Cc1cccc(N=C2NC(=O)/C(=C/c3cccn3C)S2)c1", "solubility kinetic": 1},
      {"compound": "N/C(=N\\OC(=O)c1ccncc1)c1cccc([N+](=O)[O-])c1", "solubility kinetic": 25.6},
      {"compound": "CC1(C)Cc2c(sc3nc(SCC(=O)O)nc(N)c23)CO1", "solubility kinetic": "> 48.8"},
      {"compound": "COc1ccc(CC(=O)Nc2cccnc2)cc1", "solubility kinetic": "> 36.3"},
      {"compound": "O=S(=O)(Cc1ccc(Cl)cc1)NCc1cccnc1", "solubility kinetic": "> 44.5"},
      {"compound": "CN(C)S(=O)(=O)c1cccc(NC(=O)CCCC2CCCCC2)c1", "solubility kinetic": 8.2},
      {"compound": "CC(C)CN1CCN(Cc2ccc(C(F)(F)F)cc2)CC1CCO", "note": "(stereo not given)", "solubility kinetic": 45.5},
      {"compound": "Cc1ccc(C(=O)NC(=S)Nc2ccc(CN3CCOCC3)cc2)cc1", "solubility kinetic": 2.7},
      {"compound": "O=C(Cc1ccc(Cl)cc1)NCCc1cnc[nH]1", "solubility kinetic": "> 39.6"},
      {"compound": "S=C(NCCc1ccccc1)Nc1ccc(N2CCCCC2)cc1", "solubility kinetic": 0.6},
      {"compound": "CC(=O)N1CCN(C(=O)c2cc3ccccc3o2)CC1", "solubility kinetic": "> 40.8"},
      {"compound": "Cc1cccnc1NC(=O)C1CCC1", "solubility kinetic": 23.4},
      {"compound": "Cc1cc(NC(=O)c2cc(S(=O)(=O)N3CCCCC3)ccc2C)no1", "solubility kinetic": 14.2},
      {"compound": "CCOC(=O)/C(C)=C1\\NC(C)(C)Cc2ccccc21.I", "solubility kinetic": 18.7},
      {"compound": "O=C(COC(=O)c1ccc2c(c1)OCO2)Nc1ccccc1", "solubility kinetic": 4.5},
      {"compound": "CCOC(=O)c1cccc(C(=O)Nc2nc3ccc(OC)cc3s2)n1", "solubility kinetic": "< 0.3"},
      {"compound": "O=[N+]([O-])C(=C1NCCN1)C(Cl)=C(Cl)Cl", "solubility kinetic": "> 38.8"},
      {"compound": "CCOC(=O)c1cc(COc2cc(Cl)cc(Cl)c2)on1", "solubility kinetic": "< 0.7"},
      {"compound": "NC(Cc1c[nH]c2ccccc12)C(=O)NCc1ccco1", "note": "(stereo not given)", "solubility kinetic": "> 42.5"},
      {"compound": "O=[N+]([O-])c1ccc(Oc2cccc3cccnc23)c(Cl)c1", "solubility kinetic": 14.1},
      {"compound": "Cc1ccccc1N1CCN(Cc2ccc([N+](=O)[O-])o2)CC1", "solubility kinetic": 34.3},
      {"compound": "CCOc1ncccc1C(=O)Nc1ccccc1F", "solubility kinetic": 2.5},
      {"compound": "S=C1CSc2ccccc2N1", "solubility kinetic": 25.1},
      {"compound": "Cc1ccc(-c2c(NCCc3ccccc3)c(=O)c2=O)cc1", "solubility kinetic": "< 0.6"},
      {"compound": "Clc1ccc2ccc3cccnc3c2n1", "solubility kinetic": "> 32.2"},
      {"compound": "CC(=O)c1ccc(NC(=O)c2cc(-c3cccs3)on2)cc1", "solubility kinetic": "< 0.3"},
      {"compound": "COc1cc(Cl)c(C)cc1NC(=O)CSc1nnc(CN2CCCC2)o1", "solubility kinetic": "> 59.5"},
      {"compound": "CCn1ccnc1C(O)c1cccc2ccccc12", "note": "(stereo not given)", "solubility kinetic": "> 37.8"},
      {"compound": "Cc1occc1C(=O)Nc1ccc(S(N)(=O)=O)cc1", "solubility kinetic": "> 42"},
      {"compound": "CCOC(=O)C(=CNc1ccc(S(N)(=O)=O)cc1)C(=O)OCC", "solubility kinetic": 37.8},
      {"compound": "Cc1cccc2cc(CNC3CCCC3)c(Cl)nc12", "solubility kinetic": "> 41.2"},
      {"compound": "COc1ccc(C(=O)NC2=Nc3ccccc3N=C(C)C2c2ccccc2)cc1", "note": "(stereo not given)", "solubility kinetic": 22.6},
      {"compound": "CCOC(=O)c1cc(C#N)c(=S)[nH]c1C", "solubility kinetic": 33.1},
      {"compound": "COc1ccc(NC(=O)CCCc2ccc(OC)c(C)c2)cc1", "solubility kinetic": 2.1},
      {"compound": "CSCCC(NC(=O)c1ccco1)C(=O)NC1CCC(C)CC1", "note": "(stereo not given)", "solubility kinetic": "> 50.8"},
      {"compound": "NC(=O)C1CCN(C(=O)c2ccc3ccccc3c2)CC1", "solubility kinetic": "> 42.4"},
      {"compound": "OC(CNCc1ccccc1Cl)COc1ccc(F)cc1", "note": "(stereo not given)", "solubility kinetic": "> 46.5"},
      {"compound": "CC(C)(C)N1CSC(=S)N(Cc2ccccc2)C1", "solubility kinetic": 16.4},
      {"compound": "Cc1ccc(SCCNC(=O)c2ccc([N+](=O)[O-])c(C)c2)cc1", "solubility kinetic": 9.5},
      {"compound": "COc1cccc(Nc2nc(N)nc(CCl)n2)c1", "solubility kinetic": "> 39.9"},
      {"compound": "O=C(CC(c1ccccc1)c1cc(Cl)ccc1O)NCCCN1CCOCC1", "note": "(stereo not given)", "solubility kinetic": 59.2},
      {"compound": "CC1CC(=O)Nc2ccccc2N1C(=O)COc1ccc2ccccc2c1", "note": "(stereo not given)", "solubility kinetic": 8.8},
      {"compound": "CC(C(c1cccs1)c1c(N)n(C)c(=O)n(C)c1=O)[N+](=O)[O-]", "note": "(stereo not given)", "solubility kinetic": "> 48.7"},
      {"compound": "O=C(NCC(c1cccs1)N1CCc2ccccc21)c1ccccc1", "note": "(stereo not given)", "solubility kinetic": "< 0.4"},
      {"compound": "O=C(NC1CCNCC1)C1CC1", "solubility kinetic": "> 25.2"},
      {"compound": "CCc1ccccc1NC(=O)c1ccc(S(=O)(=O)N2CCCC2)cc1", "solubility kinetic": 12.2},
      {"compound": "Nc1ccc(-c2cc3ccccc3oc2=O)cc1", "solubility kinetic": 17.9}
    ]}
  ]
}
